The results in this text go back to patent US9616053B2, “Indolin-2-one or pyrrolo-pyridin/pyrimidin-2-one derivatives” (Hoffmann-La Roche Inc., priority 2013, dated 2017).

In assay [1] the test system is L-687,414-induced hyperlocomotion. In words: L-687,414-induced hyperlocomotion (Digiscan locomotor activity). The class given is in vivo, mouse. The settings on record: mice; for inhibition at 30 mg/kg: Mus musculus, dose ip 30 mg/kg, at the same time as s.c. 50 mg/kg L-687,414; for ID50 po: dose producing 50% inhibition of L-687,414-induced hyperlocomotion, p.o. 15 min before s.c. 50 mg/kg L-687,414. The source says: The authors described that hyperlocomotion induced by L-687,414 was inhibited by a series of known antipsychotic drugs. […] These findings predict antipsychotic activity for the present compounds, making them useful for the treatment of positive (psychosis) and negative symptoms of schizophrenia, substance abuse, alcohol and drug addiction, obsessive-compulsive disorders, cognitive impairment, bipolar disorders, mood disorders, major depression, resistant depression, anxiety disorders, Alzheimer's disease, autism, Parkinson's disease, chronic pain, borderline personality disorder, sleep disturbances, chronic fatigue syndrome, stiffness, antiinflammatory effects in arthritis and balance problems.
The described compounds of formula I reduce L-687,414-induced hyperlocomotion. This was assessed by using a computerized Digiscan 16 Animal Activity Monitoring System (Omnitech Electronics, Columbus, Ohio) to quantify locomotor activity. Animals were kept under a 12 h light/dark cycle and experiments were performed during the light period. Each activity monitoring chamber consisted of a Plexiglas box (41×41×28 cm; W×L×H) with sawdust bedding on the floor surrounded by invisible horizontal and vertical infrared sensor beams. The test boxes were divided by a Plexiglas cross providing each mouse with 20×20 cm of moving space. Cages were connected to a Digiscan Analyzer linked to a computer that constantly collected the beam status information. Records of photocell beam interruptions for individual animals were taken every 5 min over the duration of the experimental session and the sum of the first 6 periods was used as the final parameter. Compounds were administered either p.o. 15 min before a s.c. injection of 50 mg/kg of L-687,414, or i.p. at the same time as a s.c. injection of 50 mg/kg of L-687,414. Mice were then transferred from their home cage to the recording chambers for a 15-min habituation phase allowing free exploration of the new environment. Horizontal activity was then recorded for a 30-min time period. The % inhibition of L-687,414-induced hyperlocomotion was calculated according to the equation: ((Veh+L-687,414 horizontal activity−drug+L-687,414 horizontal activity)Veh+L-687,414 horizontal activity)×100
ID50 values, defined as doses of each compound producing 50% inhibition of L-687,414-induced hyperlocomotion, were calculated by linear regression analysis of a dose-response data using an Excel-based computer-fitting program.
As data was not presupposed to be normally distributed, groups treated with test compounds were statistically compared with the control (vehicle-treated) group using one-tailed Mann Whitney U tests. In statistics, the Mann-Whitney Utest (also called the Mann-Whitney-Wilcoxon (MWW) or Wilcoxon rank-sum test) is a non-parametric statistical hypothesis test for assessing whether one of two samples of independent observations tends to have larger values than the other. It is one of the most well-known non-parametric significance tests. […] P values given in table 1 are one-tailed since only decreases in locomotion were expected and tested for (Mann, H. B., Whitney, D. R. (1947), “On a Test of Whether one of Two Random Variables is Stochastically Larger than the Other”, Annals of Mathematical Statistics, 18 (1), 50-60).

In assay [2] the test system is behaviors of compound-treated mice. In words: SmartCube behavioral signature and similarity analysis. More on the design: key to discrimination rate vs Clozapine / discrimination rate vs Olanzapine / discrimination rate vs Risperidone: discrimination rate as fraction; 0.5 = zero distinguishability. Particulars: 25 mg/kg i.p.; for SmartCube behavioral signature: compared with reference drug classes; for discrimination rate vs Clozapine / discrimination rate vs Olanzapine / discrimination rate vs Risperidone: rate of 0.70 or lower = similar. The assay is classed as in vivo. From the text: In addition to the reversal of L-687,414 induced hyperlocomotion experiment as described above, some compounds of the present invention have been tested in SmartCube®, an automated system in which the behaviors of compound-treated mice in response to multiple challenges are captured by digital video and analyzed with computer algorithms (Roberds et al., Frontiers in Neuroscience, 2011, Vol. 5, Art. 103, 1-4). In this way, the neuro-pharmacological effects of a test compound can be predicted by similarity to major classes of compounds, such as antipsychotics, anxiolytics and antidepressants.
As mentioned above, some compounds have been tested in SmartCube®, an analytical system developed by PsychoGenics Inc.
SmartCube® was used to compare the behavioral signature of a test compound to a database of behavioral signatures obtained from a large set of clinically approved reference drugs, grouped per indications. In this way, the neuro-pharmacological effects of a test compound can be predicted by similarity to major classes of compounds, such as antipsychotics, anxiolytics and antidepressants. This approach is ideally suited to screen collections of existing drugs or drug candidates with previously unknown neuropharmacology, which could expedite the development of new and unexpected treatments for psychiatric disorders.
Some compounds of the present invention were injected i.p. at different doses 15 minutes before the test. At least 8 mice were used in each treatment group. Digital videos of the subjects were processed with computer vision algorithms to extract over 2000 dependent measures including frequency and duration of many different behavioral states. The results of the classifications are presented as bar charts for each compound and dose (mg/kg), the Y-axis indicates the relative probability that the test compound will show efficacy in the specific CNS indication.
Compounds of the present invention show similar signatures to those of atypical antipsychotics. An independent analysis was performed on the unclassified data to determine the similarity of the example compounds to active doses of known atypical antipsychotics. For this analysis, we use discrimination rate as the measure of separability between the two drugs, i.e. one drug's “distinguishability” from another. A rate equal to 50% (or 0.5) corresponds to zero distinguishability. […] In most cases, the example compounds show a similarity to risperidone, clozapine and olanzapine with a discrimination rate of ≦0.70.

For `CN1C(=O)C(C)(C)c2ccc(-c3cccnn3)cc21` [Example 13, 1,3,3-Trimethyl-6-(pyridazin-3-yl)indolin-2-one], testing at 30 mg/kg in assay [1] gave an inhibition of 76.9%. In assay [2], the SmartCube behavioral signature result is on record as “similarity to atypical antipsychotics”, the “discrimination rate vs Clozapine” value was 0.69, the “discrimination rate vs Olanzapine” value came to 0.70 and the “discrimination rate vs Risperidone” value is 0.72.

On to `Cc1ncc(-c2ccc3c(c2)N(C)C(=O)C3(C)C)o1` [Example 71, 1,3,3-Trimethyl-6-(2-methyloxazol-5-yl)indolin-2-one], for which, in assay [1], the inhibition (as a rule, the drop in the measured response relative to a control, in per cent) at 30 mg/kg was found to be 68.5%. Moreover, in assay [2], the SmartCube behavioral signature entry is listed as “similarity to atypical antipsychotics”, the “discrimination rate vs Clozapine” value was 0.79, the “discrimination rate vs Olanzapine” value amounted to 0.66 and the “discrimination rate vs Risperidone” value is 0.63.

For `Cc1ncc(-c2ccc3c(c2)N(CCCS(=O)(=O)C2CC2)C(=O)C3(C)C)cn1` [Example 54, 1-(3-(Cyclopropylsulfonyl)propyl)-3,3-dimethyl-6-(2-methylpyrimidin-5-yl)indolin-2-one], in assay [2], the SmartCube behavioral signature result is given as “similarity to atypical antipsychotics”, the “discrimination rate vs Clozapine” value is reported as 0.69, the “discrimination rate vs Olanzapine” value came out at 0.61 and the “discrimination rate vs Risperidone” value stood at 0.63.

With `Cc1cc(-c2ccc3c(c2)N(C)C(=O)C3(C)C)on1` [Example 143, 1,3,3-Trimethyl-6-(3-methylisoxazol-5-yl)indolin-2-one], testing at 30 mg/kg in assay [1] gave an inhibition of 65.7%.

As for `CN1C(=O)C(C)(C)c2cc(F)c(-c3cncnc3)c(F)c21` [Example 43, 5,7-Difluoro-1,3,3-trimethyl-6-pyrimidin-5-yl-1,3-dihydro-indol-2-one], at 30 mg/kg the inhibition in assay [1] was 60.5%.

Molecule `Cc1cn(-c2ccc3c(c2)NC(=O)C3(C)C)cn1` [Example 63, 3,3-Dimethyl-6-(4-methyl-1H-imidazol-1-yl)indolin-2-one] returned an inhibition at 30 mg/kg in assay [1] of 68.9%.

Consider `Cc1nnc(-c2ccc3c(c2)NC(=O)C3(C)C)o1` [Example 106, 3,3-Dimethyl-6-(5-methyl-1,3,4-oxadiazol-2-yl)indolin-2-one], for which, in assay [1], the inhibition at 30 mg/kg turned out to be 75.7%.

On to `Cc1c(-c2cccnc2)ccc2c1N(C)C(=O)C2(C)C` [Example 36, 1,3,3,7-Tetramethyl-6-(pyridin-3-yl)indolin-2-one], for which at 30 mg/kg the inhibition in assay [1] was 79.3%.

`CN1C(=O)C(C)(C)c2ccc(-n3ccnc3)cc21` [Example 61, 6-(1H-Imidazol-1-yl)-1,3,3-trimethylindolin-2-one]: in assay [1], the ID50 po is listed as 10.71 mg/kg.

The molecule `Cc1ncc(-c2ccc3c(c2)N(CCOC(F)(F)F)C(=O)C3(C)C)cn1` [Example 128, 3,3-Dimethyl-6-(2-methylpyrimidin-5-yl)-1(2-(trifluoromethoxy)ethyl)indolin-2-one] registered an inhibition at 30 mg/kg in assay [1] of 66.1%.

In the case of `CC1(C)C(=O)Nc2cc(-n3ccnc3)ccc21` [Example 58, 6-Imidazol-1-yl-3,3-dimethyl-1,3-dihydro-indol-2-one], in assay [2], the SmartCube behavioral signature result is reported as “similarity to atypical antipsychotics”, the “discrimination rate vs Clozapine” value is given as 0.63, the “discrimination rate vs Olanzapine” value was 0.69 and the “discrimination rate vs Risperidone” value is recorded as 0.66.

Take `CN1C(=O)C(C)(C)c2ccc(-c3cnc4c(c3)NCCO4)cc21` [Example 25, 6-(2,3-Dihydro-1H-pyrido[2,3-b][1,4]oxazin-7-yl)-1,3,3-trimethylindolin-2-one]: the ID50 po in assay [1] was found to be 3.03 mg/kg.

Consider `CN1C(=O)C(C)(C)c2ccc(-c3cccnc3)c(F)c21` [Example 34, 7-Fluoro-1,3,3-trimethyl-6-(pyridin-3-yl)indolin-2-one], for which the inhibition at 30 mg/kg in assay [1] came out at 56.9%.

Molecule `Cc1ncccc1-c1ccc2c(c1)NC(=O)C2(C)C` [Example 19, 3,3-Dimethyl-6-(2-methylpyridin-3-yl)indolin-2-one] registered an inhibition at 30 mg/kg in assay [1] of 61.6%.

As for `CN1C(=O)C(C)(C)c2ccc(-c3ccc4nccn4c3)cc21` [Example 30, 6-(Imidazo[1,2-a]pyridin-6-yl)-1,3,3-trimethylindolin-2-one], the inhibition at 30 mg/kg in assay [1] stood at 49.1%.

On to `Cc1ncc(-c2ccc3c(c2)N(CC2CCC2)C(=O)C3(C)C)cn1` [Example 48, 1-(Cyclobutylmethyl)-3,3-dimethyl-6-(2-methylpyrimidin-5-yl)indolin-2-one], for which at 30 mg/kg the inhibition in assay [1] was 68.6%.

`CN1C(=O)C(C)(C)c2ccc(-c3cnc(N)nc3)cc21` [Example 10, 6-(2-Aminopyrimidin-5-yl)-1,3,3-trimethylindolin-2-one] gave an inhibition at 30 mg/kg in assay [1] of 97.1%.

Molecule `Cc1ncc(-c2ccc3c(c2)N(CCCF)C(=O)C3(C)C)cn1` [Example 131, 1-(3-Fluoropropyl)-3,3-dimethyl-6-(2-methylpyrimidin-5-yl)indolin-2-one] gave an inhibition at 30 mg/kg in assay [1] of 95.3%.

In turn, `CCn1cnc(-c2ccc3c(c2)N(C)C(=O)C3(C)C)c1` [Example 133, 6-(1-Ethyl-1H-imidazol-4-yl)-1,3,3-trimethylindolin-2-one] yielded an inhibition at 30 mg/kg in assay [1] of 44%.

Take `Cc1cnccc1-c1ccc2c(c1)NC(=O)C2(C)C` [Example 20, 3,3-Dimethyl-6-(3-methylpyridin-4-yl)indolin-2-one]: the inhibition at 30 mg/kg in assay [1] is 47.5%.

In the case of `CN1C(=O)C(C)(C)c2ccc(-c3cccnc3)cc21` [Example 3, 1,3,3-Trimethyl-6-(pyridin-3-yl)indolin-2-one], testing at 30 mg/kg in assay [1] gave an inhibition of 53.4%.

Turning to `CN1C(=O)C(C)(C)c2ccc(-c3cnc4c(c3)CCC4)cc21` [Example 23, 6-(6,7-Dihydro-5H-cyclopenta[b]pyridin-3-yl)-1,3,3-trimethylindolin-2-one], the inhibition at 30 mg/kg in assay [1] is 81.6%.
